Measured values published in article PMC4171606, “A novel copper(I) complex induces ER-stress-mediated apoptosis and sensitizes B-acute lymphoblastic leukemia cells to chemotherapeutic agents” (Oncotarget, 2014).

How the values were obtained:
Format in all cases: cell-based, human
caspase-12 = assay: Western blot, cleaved caspase-12
Procedure: FIGURE 2 CP induces caspase-dependent apoptosis without mitochondria involvement (A) Assessment of mitochondrial membrane potential (ΔΨmt) after treatment of RS4;11 and SEM cells with CP (2.5 μM) for the indicated times. Cells were stained with the fluorescent probe JC-1. Data are represented as mean ± S.E.M. of three independent experiments. (B) Flow cytometric analysis of RS4;11 and SEM cells treated with CP (2.5 μM) for 24 h showing cytochrome c labeled with a monoclonal antibody conjugated to FITC. Representative image of three experiments with similar results. (C) Cells were incubated with CP 2.5 μM and 5 μM in the presence or absence of the pan-caspase inhibitor z-VAD.fmk (100 μM). Cell viability was determined after 48 h by MTT assay. Data are represented as mean ± S.E.M. of three independent experiments performed in triplicate. *p<0.01 vs CP alone. (D) Western blot analysis of Bcl-2, cleaved caspase-12, caspase-9, cleaved caspase-7, caspase-3 and PARP after treatment of SEM and RS4;11 cells with CP (2.5 μM) for the indicated times. To confirm equal protein loading, each membrane was stripped and reprobed with anti-β-actin antibody. […]
Cells were treated with CP and, after different times, were collected, centrifuged and washed with ice cold phosphate-buffered saline (PBS). […] The protein concentration in the supernatant was determined using the BCA protein assay (Pierce, Italy). […]

CHOP = assay: Western blot, ER stress marker CHOP; conditions: SEM and RS4;11, CP 2.5 μM
Procedure: (§1) Moreover we found an increase in CHOP expression starting from 3 h of CP treatment. […] Whilst GRP78, due to its chaperon activity, exerts a protective function, CHOP promotes ER-stress cell death, thus the rapid activation of pro-death signals and the late activation of pro-survival chaperone GRP78 could explain the commitment toward apoptosis induced by CP. Moreover, in unresolvable stress conditions, an increased CHOP expression has been correlated to the induction of the expression of many apoptotic genes and to the down-regulation prosurvival genes, such as Bcl-2 [30].
(§2) FIGURE 4 CP induces ER stress Western Blot analysis showing expression of GRP78 and CHOP in SEM (A) and in RS4;11 (B) cells. Cells were treated with CP 2.5 μM for the indicated times. (C) PCR analysis showing the induction of XBP1 splicing in SEM and RS4;11 cells. Cells were treated with CP (2.5 μM) or Tunicamycin (2 μg/ml) as positive control for 12 h.
Cells were treated with CP and, after different times, were collected, centrifuged and washed with ice cold phosphate-buffered saline (PBS). The pellet was then resuspended in lysis buffer as described. The protein concentration in the supernatant was determined using the BCA protein assay (Pierce, Italy). […]

XBP1 = assay: PCR analysis of XBP1 splicing; conditions: CP 2.5 μM, 12 h
Procedure: as §1, §2
Cells were treated with CP and Tunicamycin as positive control, collected, centrifuged and washed with PBS. Total RNA was extracted from cells using Trizol (Life Technologies, Italy) as previously described. Primer pair used to amplified XBP1 isoforms: forward 5'-[…]-3', reverse 5'-[…]-3'. To separate isoforms, PCR products were run in 5% agarose gel.

SEM and RS4;11 cells = assay: Annexin-V-FITC/PI flow cytometry (apoptosis); conditions: CP 2.5 μM, both cell lines
Procedure: FIGURE 1 CP uptake and effects on cell cycle and apoptosis induction A) RS4;11, SEM, THP1, Jurkat cell lines and healthy PBMC were incubated with 6.25, 12.5 and 25 μM of CP for 24 h. The intracellular accumulation of CP was detected by GF-AAS analysis. B) SEM and RS4;11 cells were treated with the indicated concentrations of CP for 24 h, cell cycle distribution and Sub-G1 contents were analyzed by flow cytometry after cell staining with PI. The percentages of each phase of the cell cycle (G1, S, G2/M) were calculated on living cells whereas the percentages of cells with hypodiploid DNA content peak (subG1) was referred to cell population characterized by the appearance of subG1 peak. C) SEM and RS4;11 cells were incubated with 2.5 μM CP for the indicated times and analyzed by flow cytometry after double staining with Annexin-V-FITC and PI. Data are represented as mean ± S.E.M. of three independent experiments.
To characterize the mode of cell death induced by CP, we performed a cytofluorimetric analysis using PI and Annexin-V-FITC, which stain DNA and phosphatidylserine residues, respectively. After a time course of 1.5, 3, 6, 12 and 24 h of drug treatment (2.5 μM), SEM and RS4;11 cells were labeled with the two dyes and analyzed by flow cytometry. […]

## F[P-](F)(F)(F)(F)F.OCP(CO)CO.OCP(CO)CO.OCP(CO)CO.OCP(CO)CO.[Cu+] [CP, [Cu(thp)4][PF6]]
caspase-12; RS4;11, CP 2.5 μM
  onset of caspase-12 activation: ≥ 1.5 h
caspase-12; SEM, CP 2.5 μM
  onset of caspase-12 activation: ≥ 3 h
CHOP
  onset of increase in CHOP expression: ≥ 3 h
XBP1
  XBP1 splicing: induced XBP1 splicing in both cell lines
SEM and RS4;11 cells
  onset of significant levels of Annexin-V positive cells: ≥ 6 h
